How the values were obtained:
Format in all cases: biochemical
c-MET kinase = c-MET kinase (Homo sapiens (Human), UniProt P08581); test: Assay of small molecular compounds for inhibiting the activity of c-MET kinase (LANCE TR-FRET); conditions: read-out: CMET IC50
Experimental: The assay is based on the LANCE TR-FRET technology of Perkin Elmer Inc., and the assay method is as follows: • 1. Dilution of compounds: a total of 11 concentrations were obtained using a 3-fold gradient dilution from the highest concentration of 2500 nM (the maximum final concentration of the drug used in this assay was 2500 nM, and the minimum final concentration was 0.042 nM). • 2. 2.5 μL of the gradient-diluted compounds were taken with a transfer pipette to a 384-well plate. • 3. Addition of enzyme: 5 μL of 2×c-MET kinase solution (with a concentration of 2 nM) was taken with a transfer pipette to the corresponding reaction well of the 384-well plate, mixed well and pre-reacted at room temperature for 5 minutes. • 4. 2.5 μL 4× Ultra ULight™-JAK-1 (Tyr1023) Peptide (with a concentration of 400 nM)/ATP (with a concentration of 40 μM) mixture was taken with a transfer pipette to the corresponding reaction well of the 384-well plate. • 5. Negative control: 2.5 μL/well 4× substrate/ATP mixture and 7.5 μL 1× Kinase Assay Buffer were added to the wells of the 384-well plate. • 6. Positive control: 2.5 μL/well 4× substrate/ATP mixture, 2.5 μL/well 1× Kinase Assay Buffer containing 16% DMSO, and 5 μL/well 2× c-MET kinase solution were added to the 384-well plate. The final concentration of DMSO in the reaction system was 4%. • 7. The mixture was mixed well and then centrifuged and reacted at room temperature in dark for 60 min. • 8. Termination of the enzymatic reaction: 5 μL of 4× stop solution was taken with a transfer pipette to the wells of the 384-well plate, mixed and then centrifuged, and reacted at room temperature for 5 min. • 9. Development of the reaction: 5 μL of 4× detection solution was taken with a transfer pipette to the wells of the 384-well plate for color development, and the mixture was mixed and then centrifuged and reacted at room temperature for 60 min. • 10. The 384-well plate was placed into the Envision plate reader and the signal was detected using the appropriate program. • 11. Analysis and processing of the raw data: • 12. The drug concentrations and the corresponding inhibition rates were input into GraphPad Prism5 for calculation, and the inhibition rate of the compounds were calculated as follows: inhibition rate (%)=(reading of positive well−reading of experimental well)/(reading of positive control well−reading of negative control well)×100%. Processing with GraphPad Prism5 software yielded the corresponding IC50 values (the concentration of the compound at which 50% of the highest inhibition of the enzyme is achieved).

MER kinase = MER kinase (Homo sapiens (Human), UniProt Q12866); test: Assay of small molecular compounds for inhibiting the activity of MER kinase (LANCE TR-FRET)
MER kinase, sequence (Q12866 21-999): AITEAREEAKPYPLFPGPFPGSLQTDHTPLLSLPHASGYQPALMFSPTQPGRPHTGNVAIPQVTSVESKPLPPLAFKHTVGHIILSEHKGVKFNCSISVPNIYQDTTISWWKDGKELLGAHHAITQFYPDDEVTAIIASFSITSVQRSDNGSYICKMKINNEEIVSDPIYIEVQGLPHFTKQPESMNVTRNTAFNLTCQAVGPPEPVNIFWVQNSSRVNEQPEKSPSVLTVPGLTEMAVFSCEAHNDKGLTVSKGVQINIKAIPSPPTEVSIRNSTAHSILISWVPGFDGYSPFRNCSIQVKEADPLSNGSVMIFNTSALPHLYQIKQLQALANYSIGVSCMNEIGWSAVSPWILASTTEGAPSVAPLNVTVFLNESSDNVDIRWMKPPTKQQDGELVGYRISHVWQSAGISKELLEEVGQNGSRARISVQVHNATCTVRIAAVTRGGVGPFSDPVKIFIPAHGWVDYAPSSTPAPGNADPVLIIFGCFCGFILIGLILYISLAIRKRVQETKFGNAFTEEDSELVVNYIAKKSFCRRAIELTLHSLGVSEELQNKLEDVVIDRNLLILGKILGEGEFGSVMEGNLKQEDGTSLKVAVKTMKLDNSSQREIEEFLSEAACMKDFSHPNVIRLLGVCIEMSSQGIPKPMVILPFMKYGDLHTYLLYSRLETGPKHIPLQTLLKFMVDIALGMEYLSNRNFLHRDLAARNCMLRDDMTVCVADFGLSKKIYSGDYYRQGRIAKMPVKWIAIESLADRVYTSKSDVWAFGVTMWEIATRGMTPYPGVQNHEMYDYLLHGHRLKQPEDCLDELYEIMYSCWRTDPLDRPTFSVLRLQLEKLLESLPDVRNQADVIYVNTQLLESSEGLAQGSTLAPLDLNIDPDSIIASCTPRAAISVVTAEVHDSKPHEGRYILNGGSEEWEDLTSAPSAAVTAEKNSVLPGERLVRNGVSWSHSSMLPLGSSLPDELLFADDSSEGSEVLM
Experimental: The assay of small molecular compounds for inhibiting the activity of MER kinase is based on the LANCE TR-FRET technology of Perkin Elmer Inc., and the assay method is as follows: • 1. Dilution of compounds: a total of 11 concentrations were obtained using a 3-fold gradient dilution from the highest concentration of 2500 nM (the maximum final concentration of the drug used in this assay was 2500 nM, and the minimum final concentration was 0.042 nM). • 2. 2.5 μL of the gradient-diluted compounds were taken with a transfer pipette to a 384-well plate. • 3. Addition of enzyme: 5 μL of 2×MER kinase solution (with a concentration of 1 nM) was taken with a transfer pipette to the corresponding reaction well of the 384-well plate, mixed well and pre-reacted at room temperature for 5 minutes. • 4. 2.5 μL 4× ULight-labeled Ploy GT (with a concentration of 200 nM)/ATP (with a concentration of 20 μM) mixture was taken with a transfer pipette to the corresponding reaction well of the 384-well plate. • 5. Negative control: 2.5 μL/well 4× substrate/ATP mixture and 7.5 μL 1× Kinase Assay Buffer were added to the wells of the 384-well plate.
(§1) Positive control: 2.5 μL/well 4× substrate/ATP mixture, 2.5 μL/well 1× Kinase Assay Buffer containing 4% DMSO, and 5 μL/well 2×MER kinase solution were added to the 384-well plate. The final concentration of DMSO in the reaction system was 1%. • 6. The mixture was mixed well and then centrifuged and reacted at room temperature in dark for 60 min. • 7. Termination of the enzymatic reaction: 5 μL of 4× stop solution was taken with a transfer pipette to the wells of the 384-well plate, mixed and then centrifuged, and reacted at room temperature for 5 min. • 8. Development of the reaction: 5 μL of 4× detection solution was taken with a transfer pipette to the wells of the 384-well plate for color development, and the mixture was mixed and then centrifuged and reacted at room temperature for 60 min. • 9. The 384-well plate was placed into the Envision plate reader and the signal was detected using the appropriate program. • 10. Analysis and processing of the raw data:
The drug concentrations and the corresponding inhibition rates were input into GraphPad Prism5 for calculation, and the inhibition rate of the compounds were calculated as follows: inhibition rate (%)=(reading of positive well−reading of experimental well)/(reading of positive control well−reading of negative control well)×100%. Processing with GraphPad Prism5 software yielded the corresponding IC50 values (the concentration of the compound at which 50% of the highest inhibition of the enzyme is achieved).

TRKA kinase = TRKA kinase (Homo sapiens (Human), UniProt P04629); test: Assay of small molecular compounds for inhibiting the activity of TRKA kinase (LANCE TR-FRET)
TRKA kinase, sequence (P04629 33-796): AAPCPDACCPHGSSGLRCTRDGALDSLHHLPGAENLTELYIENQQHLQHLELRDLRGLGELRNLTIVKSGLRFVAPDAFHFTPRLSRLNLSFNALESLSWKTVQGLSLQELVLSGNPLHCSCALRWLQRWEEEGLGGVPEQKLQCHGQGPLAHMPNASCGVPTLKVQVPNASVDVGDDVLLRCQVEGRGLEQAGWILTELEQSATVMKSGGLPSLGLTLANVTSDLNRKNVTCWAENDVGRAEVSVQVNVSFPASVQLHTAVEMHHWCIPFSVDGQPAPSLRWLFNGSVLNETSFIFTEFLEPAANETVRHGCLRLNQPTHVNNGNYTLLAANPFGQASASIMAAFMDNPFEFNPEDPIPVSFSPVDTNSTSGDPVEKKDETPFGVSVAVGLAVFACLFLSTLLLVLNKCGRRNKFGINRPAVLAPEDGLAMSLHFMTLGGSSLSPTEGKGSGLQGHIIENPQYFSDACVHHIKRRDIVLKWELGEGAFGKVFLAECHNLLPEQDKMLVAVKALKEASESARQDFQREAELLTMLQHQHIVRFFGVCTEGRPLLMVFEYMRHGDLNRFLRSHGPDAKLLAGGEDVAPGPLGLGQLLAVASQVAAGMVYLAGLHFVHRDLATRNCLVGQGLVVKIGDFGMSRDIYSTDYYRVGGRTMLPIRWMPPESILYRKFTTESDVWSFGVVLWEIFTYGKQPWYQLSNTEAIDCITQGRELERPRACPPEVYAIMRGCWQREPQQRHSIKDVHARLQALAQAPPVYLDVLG
Experimental: The assay of small molecular compounds for inhibiting the activity of TRKA kinase is based on the LANCE TR-FRET technology of Perkin Elmer Inc., and the assay method is as follows: • 1. […] 2.5 μL of the gradient-diluted compounds were taken with a transfer pipette to a 384-well plate. • 3. Addition of enzyme: 5 μL of 2×TRKA kinase solution (with a concentration of 2 nM) was taken with a transfer pipette to the corresponding reaction well of the 384-well plate, mixed well and pre-reacted at room temperature for 5 minutes. • 4. 2.5 μL 4× Ultra ULight-labeled TK Peptide (with a concentration of 400 nM)/ATP (with a concentration of 40 μM) mixture was taken with a transfer pipette to the corresponding reaction well of the 384-well plate. • 5. Negative control: 2.5 μL/well 4× substrate/ATP mixture and 7.5 μL 1× Kinase Assay Buffer were added to the wells of the 384-well plate.
as §1, with “2×TRKA” for “2×MER”, “program.” for “program. • 10. Analysis and processing of the raw data:”

c-MET kinase, sequence (P08581 25-1390): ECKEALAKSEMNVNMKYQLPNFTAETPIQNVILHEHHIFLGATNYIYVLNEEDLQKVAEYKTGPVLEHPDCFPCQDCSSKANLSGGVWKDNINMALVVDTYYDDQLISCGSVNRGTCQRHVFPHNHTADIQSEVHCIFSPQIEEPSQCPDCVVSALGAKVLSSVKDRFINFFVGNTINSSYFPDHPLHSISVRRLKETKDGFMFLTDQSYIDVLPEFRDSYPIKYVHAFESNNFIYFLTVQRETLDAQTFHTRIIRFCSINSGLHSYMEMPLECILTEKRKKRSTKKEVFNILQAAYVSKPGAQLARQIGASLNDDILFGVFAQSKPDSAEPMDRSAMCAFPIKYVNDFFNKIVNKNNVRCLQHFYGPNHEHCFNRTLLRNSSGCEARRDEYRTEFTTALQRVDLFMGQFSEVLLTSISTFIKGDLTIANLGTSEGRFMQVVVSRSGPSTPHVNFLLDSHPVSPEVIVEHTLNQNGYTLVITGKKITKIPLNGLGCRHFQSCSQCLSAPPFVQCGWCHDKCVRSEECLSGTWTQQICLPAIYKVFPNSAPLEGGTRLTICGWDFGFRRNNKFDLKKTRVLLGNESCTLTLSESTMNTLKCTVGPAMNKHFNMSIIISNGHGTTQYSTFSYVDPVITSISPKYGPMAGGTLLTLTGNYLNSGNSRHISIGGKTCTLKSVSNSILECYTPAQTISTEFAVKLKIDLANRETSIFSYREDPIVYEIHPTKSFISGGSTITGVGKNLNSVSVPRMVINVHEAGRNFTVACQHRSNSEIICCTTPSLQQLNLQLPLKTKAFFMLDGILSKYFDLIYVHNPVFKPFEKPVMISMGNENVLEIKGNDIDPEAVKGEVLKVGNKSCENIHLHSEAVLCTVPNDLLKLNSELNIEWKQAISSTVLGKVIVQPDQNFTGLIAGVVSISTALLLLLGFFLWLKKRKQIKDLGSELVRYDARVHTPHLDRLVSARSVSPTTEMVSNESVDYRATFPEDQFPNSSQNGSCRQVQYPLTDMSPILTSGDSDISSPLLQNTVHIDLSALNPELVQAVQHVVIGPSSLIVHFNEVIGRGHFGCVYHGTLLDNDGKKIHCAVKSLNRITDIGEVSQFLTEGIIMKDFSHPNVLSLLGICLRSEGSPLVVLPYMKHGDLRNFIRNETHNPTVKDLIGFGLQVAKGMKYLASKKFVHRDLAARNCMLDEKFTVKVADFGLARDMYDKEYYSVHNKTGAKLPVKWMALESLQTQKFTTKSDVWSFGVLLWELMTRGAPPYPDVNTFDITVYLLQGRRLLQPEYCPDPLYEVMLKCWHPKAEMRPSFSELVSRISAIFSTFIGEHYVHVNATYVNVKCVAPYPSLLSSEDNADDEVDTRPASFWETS

IC50 (c-MET kinase) [nM] | IC50 (MER kinase) [nM] | IC50 (TRKA kinase) [nM] | SMILES
50 to 500 | 500 to 5000 | – | COc1cc2ncnc(Oc3ccc(NC(=O)c4ccn(-c5ccc(F)cc5C)n4)cc3F)c2c2c1OCCO2 [Example 7, 1-(4-fluoro-2-methylphenyl)-N-(3-fluoro-4-((5-methoxy-2,3-dihydro-[1,4]dioxino[2,3-f]quinazolin-10-yl)oxy)phenyl)-1H-pyrazole-3-carboxamide]
50 to 500 | 500 to 5000 | – | COc1cn(-c2ccc(F)cc2C)nc1C(=O)Nc1ccc(Oc2ncnc3cc(OC)c4c(c23)OCCO4)c(F)c1 [Example 8, 1-(4-fluoro-2-methylphenyl)-N-(3-fluoro-4-((5-methoxy-2,3-dihydro-[1,4]dioxino[2,3-f]quinazolin-10-yl)oxy)phenyl)-4-methoxy-1H-pyrazole-3-carboxamide]
– | 50 to 500 | 500 to 5000 | COc1cc2nccc(Oc3ccc(NC(=O)c4cn(C(C)C)c(=O)n(C5CCCCC5)c4=O)cc3F)c2c2c1OCCO2 [Example 157, N-(3-fluoro-4-((5-methoxy-2,3-dihydro-[1,4]dioxino[2,3-f]quinolin-10-yl)oxy)phenyl)-3-cyclohexyl-1-isopropyl-2,4-dioxo-1,2,3,4-tetrahydropyrimidine-5-carboxamide]
– | – | 50 to 500 | Cn1cc(C(=O)Nc2ccc(Oc3ccnc4ccc5c(c34)OCCO5)c(F)c2)c(=O)n(-c2ccc(F)cc2)c1=O [Example 160, N-(4-((2,3-dihydro-[1,4]dioxino[2,3-f]quinolin-10-yl)oxy)-3-fluorophenyl)-3-(4-fluorophenyl)-1-methyl-2,4-dioxo-1,2,3,4-tetrahydropyrimidine-5-carboxamide]
– | – | 50 to 500 | CCn1cc(C(=O)Nc2ccc(Oc3ccnc4ccc5c(c34)OCCO5)c(F)c2)c(=O)n(-c2ccc(F)cc2)c1=O [Example 161, N-(4-((2,3-dihydro-[1,4]dioxino[2,3-f]quinolin-10-yl)oxy)-3-fluorophenyl)-3-(4-fluorophenyl)-1-ethyl-2,4-dioxo-1,2,3,4-tetrahydropyrimidine-5-carboxamide]
– | – | 50 to 500 | CCn1cc(C(=O)Nc2ccc(Oc3ccnc4ccc5c(c34)OCCO5)cc2F)c(=O)n(-c2ccc(F)cc2)c1=O [Example 163, N-(4-((2,3-dihydro-[1,4]dioxino[2,3-f]quinolin-10-yl)oxy)-2-fluorophenyl)-3-(4-fluorophenyl)-1-ethyl-2,4-dioxo-1,2,3,4-tetrahydropyrimidine-5-carboxamide]
≤ 50 | – | 50 to 500 | CCOc1ccn(-c2ccc(F)cc2)c(=O)c1C(=O)Nc1ccc(Oc2ccnc3ccc4c(c23)OCCO4)cc1 [Example 164, N-(4-((2,3-dihydro-[1,4]dioxino[2,3-f]quinolin-10-yl)oxy)phenyl)-4-ethoxy-1-(4-fluorophenyl)-2-oxo-1,2-dihydropyridine-3-carboxamide]
≤ 50 | – | 50 to 500 | O=C(Nc1ccc(Oc2ccnc3ccc4c(c23)OCCO4)cc1)c1cccn(-c2ccc(F)cc2)c1=O [Example 165, N-(4-((2,3-dihydro-[1,4]dioxino[2,3-f]quinolin-10-yl)oxy)phenyl)-1-(4-fluorophenyl)-2-oxo-1,2-dihydropyridine-3-carboxamide]
50 to 500 | – | 50 to 500 | COc1ccn(-c2ccc(F)cc2)c(=O)c1C(=O)Nc1ccc(Oc2ccnc3ccc4c(c23)OCCO4)cc1 [Example 166, N-(4-((2,3-dihydro-[1,4]dioxino[2,3-f]quinolin-10-yl)oxy)phenyl)-4-methoxy-1-(4-fluorophenyl)-2-oxo-1,2-dihydropyridine-3-carboxamide]
≤ 50 | – | 50 to 500 | COc1ccn(-c2ccc(F)cc2)c(=O)c1C(=O)Nc1ccc(Oc2ccnc3ccc4c(c23)OCCO4)c(F)c1 [Example 167, N-(4-((2,3-dihydro-[1,4]dioxino[2,3-f]quinolin-10-yl)oxy)-3-fluorophenyl)-1-(4-fluorophenyl)-4-methoxy-2-oxo-1,2-dihydropyridine-3-carboxamide]
– | – | 50 to 500 | CCOc1ccn(-c2ccc(F)cc2)c(=O)c1C(=O)Nc1ccc(Oc2ccnc3ccc4c(c23)OCCO4)c(F)c1 [Example 168, N-(4-((2,3-dihydro-[1,4]dioxino[2,3-f]quinolin-10-yl)oxy)-3-fluorophenyl)-1-(4-fluorophenyl)-4-ethoxy-2-oxo-1,2-dihydropyridine-3-carboxamide]
– | – | 50 to 500 | Cn1cc(C(=O)Nc2cc(F)c(Oc3ccnc4ccc5c(c34)OCCO5)cc2Cl)c(=O)n(-c2ccc(F)cc2)c1=O [Example 173, N-(2-chloro-4-((2,3-dihydro-[1,4]dioxino[2,3-f]quinolin-10-yl)oxy)-5-fluorophenyl)-3-(4-fluorophenyl)-1-methyl-2,4-dioxo-1,2,3,4-tetrahydropyrimidine-5-carboxamide]
– | – | < 50 | CCn1cc(C(=O)Nc2cc(F)c(Oc3ccnc4ccc5c(c34)OCCO5)cc2Cl)c(=O)n(-c2ccc(F)cc2)c1=O [Example 174, N-(2-chloro-4-((2,3-dihydro-[1,4]dioxino[2,3-f]quinolin-10-yl)oxy)-5-fluorophenyl)-3-(4-fluorophenyl)-1-ethyl-2,4-dioxo-1,2,3,4-tetrahydropyrimidine-5-carboxamide]
– | – | 50 to 500 | CCn1cc(C(=O)Nc2cc(F)c(Oc3ccnc4ccc5c(c34)OCCO5)cc2C)c(=O)n(-c2ccc(F)cc2)c1=O [Example 176, N-(4-((2,3-dihydro-[1,4]dioxino[2,3-f]quinolin-10-yl)oxy)-5-fluoro-2-methylphenyl)-3-(4-fluorophenyl)-1-ethyl-2,4-dioxo-1,2,3,4-tetrahydropyrimidine-5-carboxamide]

Source: patent US12202835B2, “Substituted aromatic ring-linked dioxinoquinazolines and dioxinoquinolines as kinase inhibitors” (BEIJING SCITECH-MQ PHARMACEUTICALS LIMITED, priority 2018, dated 2025)
